Assay results taken from patent US20130243847A1, “ACTIVATED CREATININE AND PRECURSORS THEREOF AS ANTIBACTERIAL AGENTS, COMPOSITIONS AND PRODUCTS CONTAINING SUCH AGENTS AND USE THEREOF” (BOARD OF REGENTS OF THE UNIVERSITY OF NEBRASKA, priority 2010, published 2013).

Columns and labels:
Format in all cases: cell-based
[1] = tested on: Acinetobacter baumannii high level resistance (HLR); test: Disc diffusion assay, CEE vs gentamicin; details: A. baumannii HLR; 50 mg anhydrous topical cream with 28% by weight agent; gentamicin 10 μg disc
Description: (§1) This testing involved the use of 50 mg of an anhydrous topical cream containing the antibacterial agent of the invention in an amount of 28% by weight and 10 μg of gentamicin, impregnated into a standard commercially available disc (Remel, Lenoxa Kans.).

[2] = tested on: Candida albicans laboratory strain 24433; test: Disc diffusion assay, CEE vs gentamicin; details: C. albicans laboratory strain 24433; 50 mg anhydrous topical cream with 28% by weight agent; gentamicin 10 μg disc
Description: as §1

[3] = tested on: Enterococcus faecalis laboratory strain 29212; test: Disc diffusion assay, CEE vs gentamicin; details: E. faecalis laboratory strain 29212; 50 mg anhydrous topical cream with 28% by weight agent; gentamicin 10 μg disc
Description: as §1

[4] = tested on: Staphylococcus aureus UMSA-1 isolate; test: Disc diffusion assay, CEE vs gentamicin; details: S. aureus UMSA-1 isolate; 50 mg anhydrous topical cream with 28% by weight agent
Description: as §1

[5] = tested on: Brevibacterium linens ATCC 9175; test: Disc diffusion assay, CEE vs gentamicin; details: B. linens ATCC 9175; 50 mg anhydrous topical cream with 28% by weight agent
Description: as §1

[6] = tested on: Staphylococcus epidermidis laboratory strain; test: Disc diffusion assay, CEE vs gentamicin; details: S. epidermidis laboratory strain; 50 mg anhydrous topical cream with 28% by weight agent
Description: as §1

[7] = tested on: Pseudomonas aeruginosa high level resistance (HLR); test: Disc diffusion assay, CEE vs gentamicin; details: P. aeruginosa HLR; 50 mg anhydrous topical cream with 28% by weight agent; gentamicin 10 μg disc
Description: as §1

Brevibacterium linens = test: Disc diffusion assay, odor causing microorganisms (Example 11); details: 25 mg anhydrous formulation (28% by weight) on filter disc
Description: (§2) Twenty-five milligrams of an anhydrous formulation of either antibacterially-activated CRN or a precursor of antibacterially-activated CRN, CEE, was prepared as described in Example 2, applied to a filter disc and tested for inhibition of bacterial growth of several odor causing microorganisms in a standard disc diffusion assay using Eridex™ (Cargill Inc. Cedar Rapids, Iowa) or creatine monohydrate containing no antibacterial agent as controls. […] The zones of inhibition for CRN or lack thereof for control test samples for B. linens and M. luteus are illustrated in FIGS. 10A and 10B respectively.

Micrococcus luteus = test: as above; details: 25 mg anhydrous formulation (28% by weight) on filter disc
Description: as §2

Bacillus subtilis = test: as above; details: 25 mg anhydrous formulation (28% by weight) on filter disc
Description: as §2

[8] = tested on: Staphylococcus epidermidis; test: as above; details: 25 mg anhydrous formulation (28% by weight) on filter disc
Description: as §2

S. aureus [9] = test: Disc diffusion assay in hydrogel carrier (Example 8)
Description: Separate formulations of antibacterially-activated CRN and a precursor of antibacterially-activated CRN, CEE, were prepared by admixing the respective antibacterial agent with a hydrogel (Advanced Medical Solutions Ltd, UK.) in varying amounts to provide final concentrations of 1 M, 500 mM, 250 mM and 125 mM. Approximately 50 μL of each formulation at the four (4) different molar concentrations was added to a 6 mm disc and inverted onto a brain heart infusion agar plate that was previously spread with S. aureus suspended in PBS at 10^5 organisms per mL. Plates were incubated at 37° C. overnight and clear zones showing inhibition of bacterial growth were measured. The hydrogel carrier including no bacterial agent (0 mM) was used as a control.

S. aureus [10] = test: Growth in Lederberg's broth with CEE at different concentrations (Example 3, FIG. 2A); details: inoculum 10^4/mL, 37° C., absorbance over time
Description: The CEE precursor of antibacterially-activated CRN was diluted at different concentrations into Lederberg's broth (LB), which was then inoculated to 10^4/mL with S. aureus. The cultures were incubated in capped plastic tubes at 37° C. and aerated by tumbling using a tube rotating device.

[11] = tested on: Escherichia coli beta lactamase producer (ESBL); details: E. coli ESBL; 50 mg anhydrous topical cream with 28% by weight agent; gentamicin 10 μg disc
Description: as §1

Saccharomyces sp. = test: Selective growth on BHI agar, mixture of three organisms (Example 12, FIG. 11C)
Description: (§3) Colonies of Micrococcus sp., Rhodotorula sp. and Saccharomyces sp. grown on brain heart infusion agar (BHI) were suspended in PBS to 0.30 OD, 580 nm. An equal volume of the three (3) organisms were combined and the mixture streaked onto plates containing BHI agar alone or BHI agar supplemented with a precursor of antibacterially-activated CRN, CEE, and incubated 48 hours at 37° C.

Micrococcus sp. = test: as above
Description: as §3

Rhodotorula sp. = test: as above
Description: as §3

S. aureus [12] = test: Disc diffusion assay, different carrier media (Example 2); details: 28% by weight agent, approx. 50 μL
Description: For purposes of the experiments described below, test compositions were prepared by admixing antibacterially-activated creatinine (CRN) or a precursor of antibacterially-activated CRN, i.e., creatine ethyl ester (CEE), as required for the experiment at hand, with a weighed amount of a suitable carrier medium to give a final concentration of 28% by weight of the antibacterial agent, based on the total weight of the composition.
Antibacterial compositions were prepared following this procedure using a number of different aqueous and non-aqueous (anhydrous) carrier media, and evaluated for antibacterial activity in a standard disc diffusion assay. Thus, approximately 50 μL of each selected carrier containing 28% by weight of either a precursor of antibacterially-activated CRN, CEE, or antibacterially-activated CRN was added to a 6 mm disc and inverted onto a brain heart infusion agar plate that was previously spread with S. aureus at 10^5 organisms per mL. Plates were incubated at 37° C. overnight and the clear zones showing inhibition of bacterial growth were measured.

[13] = 100 mM and 200 mM CEE in BHI agar, 48 hours, 37° C.
[14] = 300 and 400 mM CEE in BHI agar (data not shown)

Compound: CCOC(=O)CN(C)C(=N)N [CEE, creatine ethyl ester]
- Zone of Inhibition [1]: 16 mm
- Zone of Inhibition [2]: 0 mm
- Zone of Inhibition [3]: 19 mm
- Zone of Inhibition [4]: 24 mm
- Zone of Inhibition [5]: 40 mm
- Zone of Inhibition [6]: 27 mm
- Zone of Inhibition [7]: 25 mm
- ZONE OF INHIBITION (Brevibacterium linens): 40 mm
- ZONE OF INHIBITION (Micrococcus luteus): 22 mm
- ZONE OF INHIBITION (Bacillus subtilis): 20 mm
- ZONE OF INHIBITION [8]: 27 mm
- zone of inhibition at 125000 µM (S. aureus [9]; Staphylococcus aureus): 7 mm
- zone of inhibition at 250000 µM (S. aureus [9]; Staphylococcus aureus): 10 mm
- zone of inhibition at 500000 µM (S. aureus [9]; Staphylococcus aureus): 15 mm
- Zone of Inhibition (S. aureus [9]; hydrogel, 1M, approx. 50 μL): 20 mm
- concentration that inhibited growth of S. aureus (S. aureus [10]): approximately 32 mM
- Zone of Inhibition [11]: 19 mm
- growth of Saccharomyces (Saccharomyces sp.; [13]): enhanced
- growth of Saccharomyces (Saccharomyces sp.; [14]): did not affect the growth
- growth of Micrococcus (Micrococcus sp.; 100 mM CEE in BHI agar, 48 hours, 37° C.): greatly retarded
- growth of Micrococcus (Micrococcus sp.; 200 mM CEE in BHI agar, 48 hours, 37° C.): completely inhibited
- growth of Micrococcus (Micrococcus sp.; [14]): inhibited the growth of Micrococcus
- growth of Rhodotorula (Rhodotorula sp.; [13]): enhanced
- growth of Rhodotorula (Rhodotorula sp.; [14]): did not affect the growth
- Zone of Inhibition (S. aureus [12]; carrier hydrogel): 20 mm
- Zone of Inhibition (S. aureus [12]; carrier mineral oil): 21 mm
- Zone of Inhibition (S. aureus [12]; carrier pharmaceutical grade Lipoil (lecithin and isopropyl palmitate)): 12 mm
- Zone of Inhibition (S. aureus [12]; carrier pharmaceutical topical formulation (proprietary blend)): 26 mm
- Zone of Inhibition (S. aureus [12]; carrier polyethylene glycol 200): 18 mm
- Zone of Inhibition (S. aureus [12]; carrier polyethylene glycol 400): 14 mm
- Zone of Inhibition (S. aureus [12]; carrier red palm oil): 15 mm
- Zone of Inhibition (S. aureus [12]; carrier water/25% glycerol): 15 mm
- Zone of Inhibition (S. aureus [12]; carrier water/50% glycerol): 15 mm
- Zone of Inhibition (S. aureus [12]; carrier water): 9 mm
- Zone of Inhibition (S. aureus [12]; carrier white palm oil/corn oil (50% ea)): 17 mm
- Zone of Inhibition (S. aureus [12]; carrier white palm oil): 12 mm
